Test results from ChEMBL document CHEMBL5257032, “Therapeutic potential of coumarins as antiviral agents” (Eur J Med Chem, 2016).

System: Influenza A virus
Assay: Antiviral activity against Oseltamivir-resistant Influenza A virus
Type: functional, organism-based

For `Cc1cc(=O)oc2c1ccc1oc(C(=O)c3ccccc3)c(-c3ccccc3)c12`, the EC50 was 21 nM.
